Source: ChEMBL document CHEMBL1201862, “PubChem BioAssay data set” (2004)
Activity calls are given as the source filed them. Cut-off read from the data, not from the text of the source: actives have a measured IC50 and inactives only a lower limit.

Molecular target: Envelope glycoprotein gp160 (Human immunodeficiency virus 1, UniProt Q6QLK5)
Experiment: inhibitors of HIV fusion peptide binding, primary screen, biochemical, uHTS, fluorescence dequenching (AID 1986)

Envelope glycoprotein gp160, sequence (Q6QLK5 whole entry, the tested form may be a part): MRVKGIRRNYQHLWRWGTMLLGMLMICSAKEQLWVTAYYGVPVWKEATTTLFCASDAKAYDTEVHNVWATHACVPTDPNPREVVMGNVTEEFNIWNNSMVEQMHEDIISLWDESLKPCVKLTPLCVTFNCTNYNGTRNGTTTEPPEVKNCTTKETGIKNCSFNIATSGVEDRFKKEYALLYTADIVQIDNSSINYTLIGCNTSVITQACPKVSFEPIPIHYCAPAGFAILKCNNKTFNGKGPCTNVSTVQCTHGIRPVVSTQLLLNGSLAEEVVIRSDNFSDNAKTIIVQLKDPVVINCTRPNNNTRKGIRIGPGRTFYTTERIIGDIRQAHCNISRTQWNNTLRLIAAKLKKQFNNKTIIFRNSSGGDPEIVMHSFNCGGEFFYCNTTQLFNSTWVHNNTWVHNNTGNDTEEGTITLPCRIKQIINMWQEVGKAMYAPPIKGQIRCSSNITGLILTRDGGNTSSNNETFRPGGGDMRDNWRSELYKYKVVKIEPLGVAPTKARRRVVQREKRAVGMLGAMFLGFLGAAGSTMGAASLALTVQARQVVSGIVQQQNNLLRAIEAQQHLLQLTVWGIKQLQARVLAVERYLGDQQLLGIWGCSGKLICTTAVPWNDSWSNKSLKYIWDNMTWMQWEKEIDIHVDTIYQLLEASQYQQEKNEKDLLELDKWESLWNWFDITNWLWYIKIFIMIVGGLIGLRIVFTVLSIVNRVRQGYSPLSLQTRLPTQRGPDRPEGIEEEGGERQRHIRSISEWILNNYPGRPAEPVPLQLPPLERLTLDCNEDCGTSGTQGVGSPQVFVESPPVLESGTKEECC

Row | Structure (SMILES) | IC50
1 | O=C(NCc1ccccc1)c1ccc2c(=O)[nH]c3c(C(=O)NCC4CCCO4)sc(=S)n3c2c1 (stereo not drawn) | 24.5 µM (active)
2 | O=C(O)C1Nc2c(O)cccc2C2C=CCC12 (stereo not drawn) | 9.86 µM (active)
3 | O=C(CN1C(=O)S/C(=C\C=C\c2ccccc2)C1=O)Nc1ccccc1C(=O)O | 21.1 µM (active)
